According to patent US20250026721A1, “COMPOUNDS AND METHODS FOR MODULATING RAS-PI3K” (Vividion Therapeutics, Inc., priority 2023, published 2025):

Target: T1, PIK3CA (Homo sapiens, UniProt P42336)
T1 construct: endogenous in cells; host or cells: Jurkat cell lysate
Assay: In vitro ELISA target engagement assay for PIK3CA in Jurkat cellular lysate (competition with PIK3CA Biotin Probe)
Format: binding
Settings: 1 hour at rt, then 500 nM PIK3CA Biotin Probe, read-out: Elisa Target Engagement Assay (TE50)
Protocol: Example 3. In Vitro ELISA Target Engagement Assay for […] Engagement of compounds on PIK3CA were assessed in Jurkat cellular lysate via a sandwich ELISA. A solution of PIK3CA Biotin Probe was generated at 10 mM and used in the biological testing. […] Treatment Protocol: Jurkat cellular lysate was generated from frozen cell pellets. Cells were thawed on ice and resuspended in cold Dulbecco's phosphate buffered saline (DPBS) (12 mL/300 e^6 cells) then lysed by probe sonication (12×3 second pulses). Jurkat lysate was plated (50 μl/well) in Armadillo 96 well PCR plates (Thermo Fisher catalog number AB2396). The lysate was treated with serial dilutions of test compounds up to 200 μM and incubated for 1 hour at rt. Following compound incubation, PIK3CA Biotin Probe was added to a final concentration of 500 nM, and lysate was mixed by pipetting gently and incubated for an additional 1 hour at rt. The mixture was then diluted in 75 μL Dilution buffer. The mixture was centrifuged for 5 minutes at 4122 g and stored at −80° C. until ELISA TE detection. ELISA TE Detection: Quantification of PIK3CA TE was initiated by coating of the ELISA plate (Thermo Scientific White 384-Well Immuno plates; Thermo Fisher catalog number 460372). The capture antibody was diluted in plating buffer (1:83) and added to the ELISA plate, 20 μl/well, overnight at 4° C. The plate was then washed twice with PBST, 100 μl/well, and blocked with addition of blocking buffer (100 μl/well, 1 hour at rt). During block, treated and probe labeled lysate was thawed. After Block, the block buffer was removed and the thawed lysate was added to the ELISA plate, 30 μl/well, for 1.5 hours at rt. Following lysate incubation, the assay plate was washed 3 times with PBST, 100 μl/well. The Neutravidin-HRP was then diluted (1:500 in dilution buffer) and added for 1 hour at rt, 20 μl/well. Following incubation, the assay plate was washed 4 times with PBST, 100 μl/well, HRP substrate was added to plate, 20 μl/well and luminescence signal was read (Clariostar Plate Reader). For each compound the potency of target engagement (TE50) was determined using Graphpad Prism.

T1 sequence (P42336 whole entry): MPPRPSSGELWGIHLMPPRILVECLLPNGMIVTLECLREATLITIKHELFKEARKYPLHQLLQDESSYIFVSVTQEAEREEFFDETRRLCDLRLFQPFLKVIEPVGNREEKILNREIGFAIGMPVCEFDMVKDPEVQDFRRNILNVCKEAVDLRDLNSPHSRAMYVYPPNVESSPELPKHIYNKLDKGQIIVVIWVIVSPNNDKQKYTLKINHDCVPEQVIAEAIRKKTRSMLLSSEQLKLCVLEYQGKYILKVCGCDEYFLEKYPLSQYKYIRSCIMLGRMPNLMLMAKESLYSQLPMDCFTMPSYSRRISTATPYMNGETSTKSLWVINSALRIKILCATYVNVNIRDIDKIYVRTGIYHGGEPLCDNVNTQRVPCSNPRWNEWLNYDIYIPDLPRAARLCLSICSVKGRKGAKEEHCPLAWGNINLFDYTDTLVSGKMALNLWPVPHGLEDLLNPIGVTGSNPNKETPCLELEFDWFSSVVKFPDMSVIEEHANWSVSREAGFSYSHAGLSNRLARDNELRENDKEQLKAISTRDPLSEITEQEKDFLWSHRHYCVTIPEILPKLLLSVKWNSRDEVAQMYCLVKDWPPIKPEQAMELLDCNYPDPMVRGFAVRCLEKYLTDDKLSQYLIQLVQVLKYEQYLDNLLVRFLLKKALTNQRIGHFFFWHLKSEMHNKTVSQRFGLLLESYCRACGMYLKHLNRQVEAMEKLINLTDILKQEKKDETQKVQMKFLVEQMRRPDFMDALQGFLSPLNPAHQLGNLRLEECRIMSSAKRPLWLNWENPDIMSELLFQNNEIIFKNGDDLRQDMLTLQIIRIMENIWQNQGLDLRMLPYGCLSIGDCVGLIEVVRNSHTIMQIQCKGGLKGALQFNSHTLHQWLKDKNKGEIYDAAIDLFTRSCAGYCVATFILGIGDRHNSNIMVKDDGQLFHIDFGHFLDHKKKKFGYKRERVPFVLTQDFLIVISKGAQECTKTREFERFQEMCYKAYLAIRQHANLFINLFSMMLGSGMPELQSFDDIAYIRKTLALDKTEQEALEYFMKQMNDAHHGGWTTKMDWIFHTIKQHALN
T1 sequence (P27986 whole entry partner): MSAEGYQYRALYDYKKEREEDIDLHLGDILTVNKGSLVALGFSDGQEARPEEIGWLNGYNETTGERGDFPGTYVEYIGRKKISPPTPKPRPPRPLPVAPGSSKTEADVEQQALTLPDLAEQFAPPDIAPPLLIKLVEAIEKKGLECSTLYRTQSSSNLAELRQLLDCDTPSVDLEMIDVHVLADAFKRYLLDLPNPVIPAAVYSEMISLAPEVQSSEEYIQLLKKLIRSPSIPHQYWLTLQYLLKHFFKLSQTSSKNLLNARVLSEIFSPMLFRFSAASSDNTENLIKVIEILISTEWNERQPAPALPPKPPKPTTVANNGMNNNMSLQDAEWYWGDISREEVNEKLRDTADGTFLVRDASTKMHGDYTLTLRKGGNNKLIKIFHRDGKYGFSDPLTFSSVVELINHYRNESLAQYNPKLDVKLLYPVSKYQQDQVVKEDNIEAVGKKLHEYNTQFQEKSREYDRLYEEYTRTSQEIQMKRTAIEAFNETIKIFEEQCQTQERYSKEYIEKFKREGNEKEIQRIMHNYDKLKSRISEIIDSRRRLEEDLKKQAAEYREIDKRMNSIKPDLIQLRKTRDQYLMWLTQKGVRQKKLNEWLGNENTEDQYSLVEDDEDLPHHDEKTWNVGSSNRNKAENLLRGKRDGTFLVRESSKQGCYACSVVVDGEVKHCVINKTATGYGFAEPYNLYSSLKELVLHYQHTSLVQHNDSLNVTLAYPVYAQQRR

Structure (SMILES)	IC50 [nM]
C[C@H](/C=C\S(C)(=O)=O)NC(=O)C1(F)CCN(S(=O)(=O)c2ccc(Br)cc2-c2cccc(Cl)c2)CC1 [Compound 55, (R,Z)-1-((5-bromo-3′-chloro-[1,1′-biphenyl]-2-yl)sulfonyl)-4-fluoro-N-(4-(methylsulfonyl)but-3-en-2-yl)piperidine-4-carboxamide]	710
Cc1c(F)cccc1-c1cc(Br)ccc1S(=O)(=O)N1CCC(F)(C(=O)N[C@H](C)/C=C\S(C)(=O)=O)CC1 [Compound 56, (R,Z)-1-((5-bromo-3′-fluoro-2′-methyl-[1,1′-biphenyl]-2-yl)sulfonyl)-4-fluoro-N-(4-(methylsulfonyl)but-3-en-2-yl)piperidine-4-carboxamide]	150
C[C@H](/C=C\S(C)(=O)=O)NC(=O)C1(F)CCN(S(=O)(=O)c2ccc(Br)cc2-c2ccccc2)CC1 [Compound 57, (R,Z)-1-((5-bromo-[1,1′-biphenyl]-2-yl)sulfonyl)-4-fluoro-N-(4-(methylsulfonyl)but-3-en-2-yl)piperidine-4-carboxamide]	580
Cc1cccc(Cl)c1-c1cc(Br)ccc1S(=O)(=O)N1CCC(F)(C(=O)N[C@H](C)/C=C\S(C)(=O)=O)CC1 [Compound 60, 1-((5-bromo-2′-chloro-6′-methyl-[1,1′-biphenyl]-2-yl)sulfonyl)-4-fluoro-N-((R,Z)-4-(methylsulfonyl)but-3-en-2-yl)piperidine-4-carboxamide]	810
CS(=O)(=O)/C=C/CNC(=O)C1(F)CCN(S(=O)(=O)c2ccc(Br)cc2-c2ccccc2Cl)CC1 [Compound 64, (E)-1-((5-bromo-2′-chloro-[1,1′-biphenyl]-2-yl)sulfonyl)-4-fluoro-N-(3-(methylsulfonyl)allyl)piperidine-4-carboxamide]	75
O=C(N[C@H]1C=CS(=O)(=O)C1)C1(F)CCN(S(=O)(=O)c2ccc(Br)cc2-c2ccccc2Cl)CC1 [Compound 67, (S)-1-((5-bromo-2′-chloro-[1,1′-biphenyl]-2-yl)sulfonyl)-N-(1,1-dioxido-2,3-dihydrothiophen-3-yl)-4-fluoropiperidine-4-carboxamide]	95.6
CC[C@@H](/C=C/S(=O)(=O)C1CNC1)NC(=O)C1(F)CCN(S(=O)(=O)c2ccc(Br)cc2-c2ccccc2Cl)CC1 [Compound 78, (S,E)-N-(1-(azetidin-3-ylsulfonyl)pent-1-en-3-yl)-1-((5-bromo-2′-chloro-[1,1′-biphenyl]-2-yl)sulfonyl)-4-fluoropiperidine-4-carboxamide]	461
COCCc1cccc(-c2cc(Cl)ccc2S(=O)(=O)N2CCC(F)(C(=O)N[C@@H](C)/C=C\S(C)(=O)=O)CC2)c1 [Compound 125, (S,Z)-1-((5-chloro-3′-(2-methoxyethyl)-[1,1′-biphenyl]-2-yl)sulfonyl)-4-fluoro-N-(4-(methylsulfonyl)but-3-en-2-yl)piperidine-4-carboxamide]	610
C[C@H](/C=C\S(C)(=O)=O)NC(=O)C1(F)CCN(S(=O)(=O)c2ccc(CCO)cc2-c2ccccc2Cl)CC1 [Compound 128, (R,Z)-1-((2′-chloro-5-(2-hydroxyethyl)-[1,1′-biphenyl]-2-yl)sulfonyl)-4-fluoro-N-(4-(methylsulfonyl)but-3-en-2-yl)piperidine-4-carboxamide]	280
COC1(C(=O)N[C@H](C)/C=C\S(C)(=O)=O)CCN(S(=O)(=O)c2ccc(Br)cc2-c2ccccc2Cl)CC1 [Compound 133, (R,Z)-1-((5-bromo-2′-chloro-[1,1′-biphenyl]-2-yl)sulfonyl)-4-methoxy-N-(4-(methylsulfonyl)but-3-en-2-yl)piperidine-4-carboxamide]	220
C[C@H](/C=C/C(=O)N1CC(F)(F)C1)NC(=O)C1(F)CCN(S(=O)(=O)c2ccc(C#N)cc2-c2ccccc2Cl)CC1 [Compound 136, (R,E)-1-((2′-chloro-5-cyano-[1,1′-biphenyl]-2-yl)sulfonyl)-N-(5-(3,3-difluoroazetidin-1-yl)-5-oxopent-3-en-2-yl)-4-fluoropiperidine-4-carboxamide]	190

Continued by falling IC50, values first:

IC50 [nM]	Structure (SMILES)
960	Cc1ccc(-c2cc(Br)ccc2S(=O)(=O)N2CCC(F)(C(=O)N[C@H](C)/C=C\S(C)(=O)=O)CC2)c(Cl)c1 [Compound 53, (R,Z)-1-((5-bromo-2′-chloro-4′-methyl-[1,1′-biphenyl]-2-yl)sulfonyl)-4-fluoro-N-(4-(methylsulfonyl)but-3-en-2-yl)piperidine-4-carboxamide]
860	C[C@H](/C=C\S(C)(=O)=O)NC(=O)C1(F)CCN(S(=O)(=O)c2ccc(Br)cc2-c2ccccc2C(F)(F)F)CC1 [Compound 54, (R,Z)-1-((5-bromo-2′-(trifluoromethyl)-[1,1′-biphenyl]-2-yl)sulfonyl)-4-fluoro-N-(4-(methylsulfonyl)but-3-en-2-yl)piperidine-4-carboxamide]
710	Cc1cccc(-c2cc(Br)ccc2S(=O)(=O)N2CCC(F)(C(=O)N[C@H](C)/C=C\S(C)(=O)=O)CC2)c1Cl [Compound 59, (R,Z)-1-((5-bromo-2′-chloro-3′-methyl-[1,1′-biphenyl]-2-yl)sulfonyl)-4-fluoro-N-(4-(methylsulfonyl)but-3-en-2-yl)piperidine-4-carboxamide]
670	C=C(C#N)CNC(=O)C1(F)CCN(S(=O)(=O)c2ccc(Br)cc2-c2ccccc2Cl)CC1 [Compound 72, 1-((5-bromo-2′-chloro-[1,1′-biphenyl]-2-yl)sulfonyl)-N-(2-cyanoallyl)-4-fluoropiperidine-4-carboxamide]
470	C[C@H](/C=C\S(C)(=O)=O)NC(=O)C1(F)CCN(S(=O)(=O)c2ccc(CO)cc2-c2ccccc2Cl)CC1 [Compound 130, (R,Z)-1-((2′-chloro-5-(hydroxymethyl)-[1,1′-biphenyl]-2-yl)sulfonyl)-4-fluoro-N-(4-(methylsulfonyl)but-3-en-2-yl)piperidine-4-carboxamide]
440	CC(O)c1ccc(S(=O)(=O)N2CCC(F)(C(=O)N[C@H](C)/C=C\S(C)(=O)=O)CC2)c(-c2ccccc2Cl)c1 (stereo partly drawn) [Compound 129, 1-((2′-chloro-5-(1-hydroxyethyl)-[1,1′-biphenyl]-2-yl)sulfonyl)-4-fluoro-N-((R,Z)-4-(methylsulfonyl)but-3-en-2-yl)piperidine-4-carboxamide]
380	COc1ccc(S(=O)(=O)N2CCC(F)(C(=O)N[C@H](C)/C=C/C(=O)N3CC(F)(F)C3)CC2)c(-c2ccccc2Cl)c1 [Compound 137, (R,E)-1-((2′-chloro-5-methoxy-[1,1′-biphenyl]-2-yl)sulfonyl)-N-(5-(3,3-difluoroazetidin-1-yl)-5-oxopent-3-en-2-yl)-4-fluoropiperidine-4-carboxamide]
198	CC[C@@H](/C=C\S(C)(=O)=O)NC(=O)C1(F)CCN(S(=O)(=O)c2ccc(Br)cc2-c2ccccc2Cl)CC1 [Compound 82, (S,Z)-1-((5-bromo-2′-chloro-[1,1′-biphenyl]-2-yl)sulfonyl)-4-fluoro-N-(1-(methylsulfonyl)pent-1-en-3-yl)piperidine-4-carboxamide]
140	C[C@H](/C=C\S(C)(=O)=O)NC(=O)C1(F)CCN(S(=O)(=O)c2ccc(Br)cc2-c2cccc(F)c2Cl)CC1 [Compound 52, (R,Z)-1-((5-bromo-2′-chloro-3′-fluoro-[1,1′-biphenyl]-2-yl)sulfonyl)-4-fluoro-N-(4-(methylsulfonyl)but-3-en-2-yl)piperidine-4-carboxamide]
140	C[C@@H](/C=C/S(=O)(=O)C1CNC1)NC(=O)C1(F)CCN(S(=O)(=O)c2ccc(Br)cc2-c2ccccc2Cl)CC1 [Compound 75, (S,E)-N-(4-(azetidin-3-ylsulfonyl)but-3-en-2-yl)-1-((5-bromo-2′-chloro-[1,1′-biphenyl]-2-yl)sulfonyl)-4-fluoropiperidine-4-carboxamide]
128	CC[C@H](/C=C/S(=O)(=O)C1CNC1)NC(=O)C1(F)CCN(S(=O)(=O)c2ccc(Br)cc2-c2ccccc2Cl)CC1 [Compound 77, (R,E)-N-(1-(azetidin-3-ylsulfonyl)pent-1-en-3-yl)-1-((5-bromo-2′-chloro-[1,1′-biphenyl]-2-yl)sulfonyl)-4-fluoropiperidine-4-carboxamide]
37.9	O=C(N[C@@H]1C=CS(=O)(=O)C1)C1(F)CCN(S(=O)(=O)c2ccc(Br)cc2-c2ccccc2Cl)CC1 [Compound 66, (R)-1-((5-bromo-2′-chloro-[1,1′-biphenyl]-2-yl)sulfonyl)-N-(1,1-dioxido-2,3-dihydrothiophen-3-yl)-4-fluoropiperidine-4-carboxamide]
32	C[C@H](/C=C/S(=O)(=O)C1CNC1)NC(=O)C1(F)CCN(S(=O)(=O)c2ccc(Br)cc2-c2ccccc2Cl)CC1 [Compound 76, (R,E)-N-(4-(azetidin-3-ylsulfonyl)but-3-en-2-yl)-1-((5-bromo-2′-chloro-[1,1′-biphenyl]-2-yl)sulfonyl)-4-fluoropiperidine-4-carboxamide]
